{"source": "paper PMC5571287", "about": "(Antimicrobial Agents and Chemotherapy, 2017)", "key": {"[1]": {"test_system": "Herpes simplex virus 1 (HF strain)", "test": "microbe, parasite or virus in culture", "type": "cell-based", "conditions": "Herpes simplex virus 1, Vero"}, "[2]": {"test_system": "RSV A Long", "test": "microbe, parasite or virus in culture", "type": "cell-based, respiratory syncytial virus"}, "[3]": {"target": "RSV RdRp activity in crude RSV A L-P complex (Human respiratory syncytial virus A, UniProt P28887)", "sequence (P28887 whole entry)": "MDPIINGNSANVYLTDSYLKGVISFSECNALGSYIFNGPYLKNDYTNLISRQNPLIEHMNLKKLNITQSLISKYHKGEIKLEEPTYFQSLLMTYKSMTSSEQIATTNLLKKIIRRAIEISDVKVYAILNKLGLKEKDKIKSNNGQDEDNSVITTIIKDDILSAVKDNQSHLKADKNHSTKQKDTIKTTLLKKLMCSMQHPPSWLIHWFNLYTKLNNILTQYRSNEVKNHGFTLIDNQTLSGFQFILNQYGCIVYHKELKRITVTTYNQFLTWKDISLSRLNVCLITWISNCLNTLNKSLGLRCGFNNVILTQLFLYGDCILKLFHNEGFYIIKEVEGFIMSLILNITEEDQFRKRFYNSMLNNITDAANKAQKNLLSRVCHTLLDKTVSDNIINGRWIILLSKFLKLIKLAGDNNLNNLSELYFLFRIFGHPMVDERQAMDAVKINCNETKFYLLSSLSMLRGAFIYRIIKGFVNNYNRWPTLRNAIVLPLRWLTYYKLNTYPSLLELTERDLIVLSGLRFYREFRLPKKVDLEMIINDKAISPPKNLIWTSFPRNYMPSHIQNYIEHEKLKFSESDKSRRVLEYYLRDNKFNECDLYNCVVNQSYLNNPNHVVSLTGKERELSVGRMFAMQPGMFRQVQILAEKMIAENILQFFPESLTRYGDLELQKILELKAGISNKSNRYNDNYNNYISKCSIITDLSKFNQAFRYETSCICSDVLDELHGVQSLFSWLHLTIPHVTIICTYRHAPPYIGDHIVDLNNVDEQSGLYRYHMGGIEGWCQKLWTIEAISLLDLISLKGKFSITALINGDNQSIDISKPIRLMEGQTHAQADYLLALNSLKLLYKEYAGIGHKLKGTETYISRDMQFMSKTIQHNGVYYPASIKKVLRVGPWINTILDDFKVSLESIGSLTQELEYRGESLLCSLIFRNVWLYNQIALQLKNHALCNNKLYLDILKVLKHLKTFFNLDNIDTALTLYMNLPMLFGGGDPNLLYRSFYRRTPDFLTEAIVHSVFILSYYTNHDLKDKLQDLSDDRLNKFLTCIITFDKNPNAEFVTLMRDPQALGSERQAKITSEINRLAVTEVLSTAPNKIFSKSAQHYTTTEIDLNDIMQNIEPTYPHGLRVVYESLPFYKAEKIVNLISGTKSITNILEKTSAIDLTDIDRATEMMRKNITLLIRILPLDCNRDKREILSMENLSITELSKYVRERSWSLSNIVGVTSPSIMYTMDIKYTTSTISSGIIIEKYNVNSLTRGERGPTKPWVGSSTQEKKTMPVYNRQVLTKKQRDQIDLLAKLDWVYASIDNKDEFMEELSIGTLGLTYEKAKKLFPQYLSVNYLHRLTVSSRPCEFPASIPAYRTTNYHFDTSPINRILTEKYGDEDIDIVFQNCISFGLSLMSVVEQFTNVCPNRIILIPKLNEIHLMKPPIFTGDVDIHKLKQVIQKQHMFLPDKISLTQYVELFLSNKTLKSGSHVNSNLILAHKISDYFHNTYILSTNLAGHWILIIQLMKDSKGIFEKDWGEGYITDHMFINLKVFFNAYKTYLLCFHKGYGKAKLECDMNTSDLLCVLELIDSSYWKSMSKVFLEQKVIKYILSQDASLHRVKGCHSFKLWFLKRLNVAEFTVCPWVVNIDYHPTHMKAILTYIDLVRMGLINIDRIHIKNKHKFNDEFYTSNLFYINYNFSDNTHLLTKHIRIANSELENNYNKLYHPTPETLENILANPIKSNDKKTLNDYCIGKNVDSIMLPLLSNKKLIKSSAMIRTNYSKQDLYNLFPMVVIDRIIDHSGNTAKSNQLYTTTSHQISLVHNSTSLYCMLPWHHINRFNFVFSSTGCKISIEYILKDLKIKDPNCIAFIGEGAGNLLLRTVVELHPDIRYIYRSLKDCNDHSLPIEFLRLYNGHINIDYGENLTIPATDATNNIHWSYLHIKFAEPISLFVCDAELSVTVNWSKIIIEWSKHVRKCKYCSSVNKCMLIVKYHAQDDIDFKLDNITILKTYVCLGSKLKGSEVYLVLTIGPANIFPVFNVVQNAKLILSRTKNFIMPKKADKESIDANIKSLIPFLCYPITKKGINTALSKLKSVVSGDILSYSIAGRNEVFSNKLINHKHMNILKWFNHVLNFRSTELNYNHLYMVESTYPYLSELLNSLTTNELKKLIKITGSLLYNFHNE", "sequence (P03421 whole entry, further chain)": "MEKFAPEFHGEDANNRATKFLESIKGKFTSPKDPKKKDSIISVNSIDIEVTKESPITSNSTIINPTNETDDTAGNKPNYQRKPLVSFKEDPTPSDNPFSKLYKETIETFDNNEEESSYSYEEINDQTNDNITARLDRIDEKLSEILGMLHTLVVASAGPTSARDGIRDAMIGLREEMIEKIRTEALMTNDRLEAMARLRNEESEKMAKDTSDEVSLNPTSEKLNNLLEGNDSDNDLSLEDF", "test": "biochemical", "conditions": "read-out: RdRp activity IC90"}, "[4]": {"test_system": "RSVA 1211", "conditions": "human respiratory syncytial virus"}, "[5]": {"target": "human polymerase α (Homo sapiens, UniProt P09884)", "sequence (P09884 whole entry)": "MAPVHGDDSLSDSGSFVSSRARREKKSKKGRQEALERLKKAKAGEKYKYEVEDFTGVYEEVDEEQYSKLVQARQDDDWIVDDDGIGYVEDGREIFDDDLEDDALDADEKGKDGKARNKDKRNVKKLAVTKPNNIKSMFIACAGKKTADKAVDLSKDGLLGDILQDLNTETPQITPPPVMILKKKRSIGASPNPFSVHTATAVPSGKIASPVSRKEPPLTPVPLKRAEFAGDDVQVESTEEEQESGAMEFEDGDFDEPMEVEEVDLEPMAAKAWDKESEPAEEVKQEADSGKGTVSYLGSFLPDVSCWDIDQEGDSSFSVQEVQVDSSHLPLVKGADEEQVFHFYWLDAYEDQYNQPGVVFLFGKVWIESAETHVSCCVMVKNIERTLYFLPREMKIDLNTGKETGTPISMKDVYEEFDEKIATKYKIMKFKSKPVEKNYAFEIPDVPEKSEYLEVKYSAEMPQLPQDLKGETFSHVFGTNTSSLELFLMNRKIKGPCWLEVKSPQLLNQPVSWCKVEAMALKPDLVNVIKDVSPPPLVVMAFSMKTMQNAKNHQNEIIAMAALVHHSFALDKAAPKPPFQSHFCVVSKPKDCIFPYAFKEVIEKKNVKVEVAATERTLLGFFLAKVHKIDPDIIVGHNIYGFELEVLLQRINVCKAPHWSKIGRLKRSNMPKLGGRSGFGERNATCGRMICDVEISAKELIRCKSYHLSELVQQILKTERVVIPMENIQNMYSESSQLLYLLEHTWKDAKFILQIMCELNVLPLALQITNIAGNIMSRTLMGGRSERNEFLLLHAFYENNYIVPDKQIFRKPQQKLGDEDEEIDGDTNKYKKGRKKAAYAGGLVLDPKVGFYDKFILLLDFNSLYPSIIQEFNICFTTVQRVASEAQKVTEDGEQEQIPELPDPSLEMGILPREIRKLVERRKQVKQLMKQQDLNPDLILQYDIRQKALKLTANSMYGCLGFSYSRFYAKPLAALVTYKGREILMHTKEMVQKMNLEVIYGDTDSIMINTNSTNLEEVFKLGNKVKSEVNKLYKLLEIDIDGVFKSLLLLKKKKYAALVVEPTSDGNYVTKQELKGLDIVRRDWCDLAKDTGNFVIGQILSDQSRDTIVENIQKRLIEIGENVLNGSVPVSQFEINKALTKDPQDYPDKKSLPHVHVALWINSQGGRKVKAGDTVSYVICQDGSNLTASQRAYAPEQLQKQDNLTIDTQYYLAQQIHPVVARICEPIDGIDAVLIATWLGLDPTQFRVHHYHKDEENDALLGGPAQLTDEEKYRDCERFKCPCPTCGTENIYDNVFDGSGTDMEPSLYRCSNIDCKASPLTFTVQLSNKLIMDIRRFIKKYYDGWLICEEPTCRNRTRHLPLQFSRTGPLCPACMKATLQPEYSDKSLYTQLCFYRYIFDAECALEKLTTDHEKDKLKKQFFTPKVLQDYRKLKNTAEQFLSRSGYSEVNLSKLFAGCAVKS", "test": "Human polymerase inhibition in vitro (data not shown)", "type": "biochemical", "conditions": "up to 1 μM"}, "[6]": {"test_system": "RSVA 689", "test": "microbe, parasite or virus in culture", "type": "cell-based", "conditions": "human respiratory syncytial virus, RSVA 689, clinical"}, "[7]": {"test_system": "RSV A2", "conditions": "human respiratory syncytial virus"}, "[8]": {"test_system": "RSV A2", "test": "CPE assay, RSV A2 in HEp-2 cells (resazurin)", "type": "cell-based, respiratory syncytial virus", "conditions": "human respiratory syncytial virus, HEp-2"}, "[9]": {"test_system": "Influenza virus H1N1 (A/PR/34 strain)", "test": "microbe, parasite or virus in culture", "type": "cell-based", "conditions": "Influenza virus H1N1, A549"}, "[10]": {"test_system": "RSV A Long", "conditions": "human respiratory syncytial virus"}, "[11]": {"test_system": "known RSV A clinical isolates", "test": "CPE assays, known RSV A clinical isolates in HEp-2", "type": "cell-based", "conditions": "human respiratory syncytial virus, read-out: IC50, range over known RSV A clinical isolates", "protocol": "For RSV A 2001/3-12, 1998/3-2, and USU⃥v1225, CPE was induced in HEp-2 cells for 7 days and the plates were then stained with neutral red dye for approximately 2 h. The intracellular incorporated dye was extracted in 50:50 Sorensen citrate buffer-ethanol and the absorbance read on a spectrophotometer. The optical density (OD) of test wells was converted to percentage of cell and virus controls. […] The virus inocula were ∼63 50% cell culture infectious doses (CCID50) per well for 2001/3-12, ∼40 CCID50/well for 1998/3-2, and ∼32 CCID50/well for USU\\v1225. This assay was conducted in Utah State University (Logan, UT).\nFor known clinical strains (RSV A 1997/12-35, 2001/2-20, 200/3-4, and Memphis 37), a 384-well-format resazurin-based CPE assay was conducted."}, "[12]": {"test_system": "Measles virus (Edmonton strain)", "test": "microbe, parasite or virus in culture", "type": "cell-based", "conditions": "MRC5"}, "[13]": {"test_system": "RSV A2", "test": "RSV A2-infected BALB/c mice, virus load in lung homogenate", "type": "in vivo"}, "[14]": {"test_system": "RSV B 9320", "conditions": "human respiratory syncytial virus"}, "[15]": {"test_system": "RSV A2", "test": "RSV A2 infection of ALI-cultured human airway epithelial cells, plaque assay of apical wash", "type": "cell-based, respiratory syncytial virus", "conditions": "MOI 0.01", "protocol": "On the day of infection (day 0), the apical surface of each insert was washed once with 300 μl of sterile PBS and the inserts were then transferred to new 24-well plates containing 780 μl of fresh MucilAir culture medium (Epithelix Sàrl). […] The virus inoculum was removed with a pipette and inserts were washed twice with 300 μl of sterile PBS. A day 0 sample was harvested by adding 300 μl of sterile PBS to the apical surface of each well for 5 min. The 300-μl sample was then removed and transferred to 0.5-ml tubes containing 100 μl of 50% sucrose dissolved in PBS, and the tubes were stored at -80°C. This harvesting procedure was repeated daily until day 7. PC786 was dosed apically onto MucilAir inserts. […] The dosing regimen was performed daily on day 0 to day 6 following each sample collection. On day 5, the basal medium was removed from every well and replenished with fresh MucilAir culture medium as a necessary maintenance step for ALI culture cells. Virus titer in the apical wash samples was determined by plaque assay. […] Cells were washed twice with PBS before 150 μl of secondary antibody (goat anti-mouse HRP conjugate [Dako Ltd., Ely, UK; P044701-2]), diluted 1:400 in blocking buffer, was added to cells for 1 h at RT, with shaking. […] Each well received 150 μl of development substrate (sigmaFAST […]; Sigma-Aldrich) until plaques were visible. Plaques were counted by eye and confirmed using light microscopy."}, "[16]": {"test_system": "RSVA 689", "conditions": "human respiratory syncytial virus"}, "[17]": {"test_system": "RSV A Long", "test": "RSV A Long-infected cotton rats, lung homogenate viral load and transcripts", "type": "in vivo"}, "[18]": {"conditions": "HEp-2, read-out: RSV titre in supernatant IC50 (0.3 Log PFUe reduction) (converted)"}, "[19]": {"conditions": "HEp-2, read-out: RSV titre in supernatant IC90 (1 Log PFUe reduction) (converted)"}, "[20]": {"conditions": "HEp-2, read-out: PCR IC50 (0.3 Log PFUe reduction) (converted)"}, "[21]": {"conditions": "HEp-2, read-out: PCR IC90 (1 Log PFUe reduction) (converted)"}, "[22]": {"conditions": "intranasal 0.2 mg/ml (0.19 mg/kg)"}}, "note": "Like-named read-outs stand apart in the source and are kept apart here."}
{"smiles": "Cc1cnc(N2CC3(CCOCC3)C2)c(C(=O)Nc2ccc(C(=O)N3CCc4cc(C(=O)Nc5c(C)cccc5F)sc4-c4ccccc43)cc2)c1", "note": "[PC786, N-(2-fluoro-6-methylphenyl)-6-(4-(5-methyl-2-(7-oxa-2-azaspiro[3.5]nonan-2-yl)nicotinamido)benzoyl)-5,6-dihydro-4H-benzo[b]thieno[2,3-d]azepine-2-carboxamide]", "values": [{"measurement": "IC90 or IC95", "setting": "[1]", "value": ">14000", "unit": "nM"}, {"measurement": "IC50", "setting": "[1]; Human alphaherpesvirus 1", "value": "> 14000", "unit": "nM"}, {"measurement": "IC90 or IC95", "setting": "[2]; HEp-2", "value": "<0.42", "unit": "nM"}, {"measurement": "IC50", "setting": "[2]; human respiratory syncytial virus, HEp-2, plaque reduction, applied 2 h before infection", "value": "< 0.42", "unit": "nM"}, {"measurement": "IC90", "setting": "[3]", "value": 21.8, "unit": "nM"}, {"measurement": "IC50", "setting": "[4]; [18]", "value": "< 0.09", "unit": "nM"}, {"measurement": "IC90", "setting": "[4]; [19]", "value": 1.05, "unit": "nM"}, {"measurement": "inhibitory effects on human polymerase α", "setting": "[5]", "value": "no measurable inhibitory effects"}, {"measurement": "IC50", "setting": "[6]; read-out: CPE IC50", "value": 0.5, "unit": "nM"}, {"measurement": "IC90", "setting": "[6]; read-out: CPE IC90", "value": 0.6, "unit": "nM"}, {"measurement": "IC50", "setting": "[7]; [20]", "value": 1.52, "unit": "nM"}, {"measurement": "IC90", "setting": "[7]; [21]", "value": 1.69, "unit": "nM"}, {"measurement": "IC50", "setting": "[8]; RSV A2, laboratory, low-passage isolate study, read-out: CPE assay IC50", "value": 0.96, "unit": "nM"}, {"measurement": "IC90", "setting": "[8]; RSV A2, laboratory, low-passage isolate study, read-out: CPE assay IC90", "value": 1.82, "unit": "nM"}, {"measurement": "IC50", "setting": "[8]; read-out: RSV A2 IC50", "value": "0.5 ± 0.0014", "unit": "nM"}, {"measurement": "IC90", "setting": "[8]; read-out: RSV A2 IC90", "value": "0.63 ± 0.035", "unit": "nM"}, {"measurement": "IC90 or IC95", "setting": "[9]", "value": ">14000", "unit": "nM"}, {"measurement": "IC50", "setting": "[9]; unidentified influenza virus", "value": "> 14000", "unit": "nM"}, {"measurement": "IC50", "setting": "[10]; [20]", "value": 2.65, "unit": "nM"}, {"measurement": "IC90", "setting": "[10]; [21]", "value": 3.45, "unit": "nM"}, {"measurement": "IC50", "setting": "[11]", "value": "0.14 to 3.2", "unit": "nM"}, {"measurement": "IC90 or IC95", "setting": "[12]", "value": ">14000", "unit": "nM"}, {"measurement": "IC50", "setting": "[12]; Measles morbillivirus", "value": "> 14000", "unit": "nM"}, {"measurement": "Virus titer of lung homogenate, interquartile range", "setting": "[13]; [22]", "value": "1.9–3.0 log PFU/ml"}, {"measurement": "Virus titer of lung homogenate, median", "setting": "[13]; [22]", "value": 2.5, "unit": "log PFU/ml"}, {"measurement": "Virus titer of lung homogenate, geometric mean ± SD", "setting": "[13]; intranasal 0.2 mg/ml (0.19 mg/kg) once daily days −1 to 3", "value": "2.4 ± 0.59", "unit": "log PFU/ml"}, {"measurement": "Virus titer of lung homogenate, median", "setting": "[13]; intranasal 2.0 mg/ml (1.9 mg/kg)", "value": "<0.33 (LOQ) log PFU/ml"}, {"measurement": "Virus titer of lung homogenate, median", "setting": "[13]; intratracheal 2.0 mg/ml (3.2 mg/kg)", "value": "<0.33 (LOQ) log PFU/ml"}, {"measurement": "IC50", "setting": "[14]; [20]", "value": 30.3, "unit": "nM"}, {"measurement": "IC90", "setting": "[14]; [21]", "value": 31, "unit": "nM"}, {"measurement": "viral replication in apical wash (plaque assay)", "setting": "[15]; 5.6 nM apical once daily day 0 to day 6", "value": "did not peak until day 5"}, {"measurement": "viral replication in apical wash (plaque assay)", "setting": "[15]; 28 nM apical once daily day 0 to day 6", "value": "viral replication was not detected until day 4"}, {"measurement": "viral quantity in apical wash (plaque assay)", "setting": "[15]; 140 nM apical once daily day 0 to day 6", "value": "below detectable limits"}, {"measurement": "IC50", "setting": "[16]; [18]", "value": 0.54, "unit": "nM"}, {"measurement": "IC90", "setting": "[16]; [19]", "value": 1.12, "unit": "nM"}, {"measurement": "IP-10 transcripts in lung homogenates", "setting": "[17]; i.n. 0.33-10 mg/ml, day 4", "value": "dose-dependent inhibition"}, {"measurement": "RANTES transcripts in lung homogenates", "setting": "[17]; i.n. 0.33-10 mg/ml, day 4", "value": "dose-dependent inhibition"}, {"measurement": "RSV NS-1 gene transcripts in lung homogenates", "setting": "[17]; i.n. 0.33-10 mg/ml, day 4", "value": "dose-dependent inhibition"}, {"measurement": "viral load in lung homogenates on day 4", "setting": "[17]; i.n. once daily days 0 to 3, doses of more than […] (165 μg/cotton rat)", "value": "lower than the detection limit"}]}
